Results on 24 molecules are retold here after patent US11427553B2, “Dihydrooxadiazinones” (Bayer Aktiengesellschaft, priority 2017, dated 2022).

For test [1], the system named is HeLa cells. Nature of the test: Assay 1 cell proliferation measurement (CTG, 72 h), HeLa. The conditions noted are these: Homo sapiens, HeLa; Assay 1, 72 h, Cell Titer Glo; read-out: HeLa IC50 [nM] (Cervical cancer). In kind it is cell-based, human. An outline of the steps: (§1)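 CTG luminescence readout after 72 h compound exposure at 37 °C; 10-point 2.5-fold dilutions from 100 nM max final; DMSO 0.3% vehicle. IC50 from 4-parameter fit, normalised to 0 h plate (max inhibition) and DMSO (min inhibition).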
On the technique in general: Cellular ATP, detected with luciferase, serves as a proxy for viable cell number.

In test [2] the test system is SK-MEL-3 cells. Nature of the test: Assay 1 cell proliferation measurement (CTG, 72 h), SK-MEL-3. In kind it is cell-based, human. As to conditions: Homo sapiens, SK-MEL3; Assay 1, 72 h, Cell Titer Glo; read-out: SK-MEL-3 IC50 [nM] (melanoma). An outline of the steps: as §1
Test [3] addresses human full length PDE3A (Homo sapiens (Human), UniProt Q14432). Put plainly: Assay 4 PDE3A enzyme inhibition (3H-cAMP SPA). In kind it is biochemical. The conditions noted are these: Sf9 cell extract. An outline of the steps:
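Hydrolysis of [8-3H]cAMP by Sf9-expressed full-length PDE3A was measured by scintillation proximity, with enzyme diluted to keep kinetics linear and substrate consumption below 70%. Incubation ran 60 min at room temperature at pH 7.5.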

The target of test [4] is human full length PDE3B (Homo sapiens (Human), UniProt Q13370). Nature of the test: Assay 5 PDE3B enzyme inhibition (3H-cAMP SPA). The format is biochemical. As to conditions: Sf9 cell extract. Summed up:
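Sf9 cell extract expressing human full-length PDE3B, diluted for linear kinetics (<70% substrate use), in 50 mM Tris/HCl pH 7.5, 8.3 mM MgCl2, 1.7 mM EDTA. [8-3H]cAMP substrate, 60 min at room temperature; stopped with yttrium SPA beads, scintillation counting. IC50 from sigmoidal activity vs log concentration curves.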

Where only a bound is given, the exact number is not on record here.

Sequence of human full length PDE3B (Q13370 whole entry): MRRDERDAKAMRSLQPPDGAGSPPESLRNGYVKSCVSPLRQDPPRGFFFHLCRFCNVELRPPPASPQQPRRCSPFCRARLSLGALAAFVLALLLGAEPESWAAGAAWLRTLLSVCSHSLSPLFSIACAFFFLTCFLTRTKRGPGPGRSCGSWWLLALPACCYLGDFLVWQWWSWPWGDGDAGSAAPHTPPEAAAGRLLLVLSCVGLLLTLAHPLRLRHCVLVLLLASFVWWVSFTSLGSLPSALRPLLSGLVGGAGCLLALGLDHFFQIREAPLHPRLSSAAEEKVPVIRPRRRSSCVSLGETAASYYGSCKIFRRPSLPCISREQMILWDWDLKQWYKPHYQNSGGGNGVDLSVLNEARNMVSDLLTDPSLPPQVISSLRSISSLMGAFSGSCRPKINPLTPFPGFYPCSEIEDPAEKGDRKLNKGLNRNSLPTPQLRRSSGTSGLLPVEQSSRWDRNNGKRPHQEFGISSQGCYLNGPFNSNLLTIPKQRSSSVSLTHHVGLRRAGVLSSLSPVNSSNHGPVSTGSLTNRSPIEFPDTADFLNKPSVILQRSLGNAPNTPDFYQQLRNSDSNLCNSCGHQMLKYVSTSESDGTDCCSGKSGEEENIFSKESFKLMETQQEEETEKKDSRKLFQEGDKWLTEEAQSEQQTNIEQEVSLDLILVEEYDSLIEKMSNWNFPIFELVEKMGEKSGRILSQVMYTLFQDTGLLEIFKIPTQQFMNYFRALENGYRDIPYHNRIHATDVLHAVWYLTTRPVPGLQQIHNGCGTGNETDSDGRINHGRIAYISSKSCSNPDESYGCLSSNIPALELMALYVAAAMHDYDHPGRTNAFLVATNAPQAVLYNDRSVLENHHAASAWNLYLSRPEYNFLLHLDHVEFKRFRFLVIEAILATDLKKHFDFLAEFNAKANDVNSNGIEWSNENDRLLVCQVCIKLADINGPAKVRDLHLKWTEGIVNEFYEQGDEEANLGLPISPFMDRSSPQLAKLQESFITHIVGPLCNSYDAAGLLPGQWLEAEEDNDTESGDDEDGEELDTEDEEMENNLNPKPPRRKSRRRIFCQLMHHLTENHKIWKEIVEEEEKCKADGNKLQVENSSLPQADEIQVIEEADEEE
Sequence of human full length PDE3A (Q14432 whole entry): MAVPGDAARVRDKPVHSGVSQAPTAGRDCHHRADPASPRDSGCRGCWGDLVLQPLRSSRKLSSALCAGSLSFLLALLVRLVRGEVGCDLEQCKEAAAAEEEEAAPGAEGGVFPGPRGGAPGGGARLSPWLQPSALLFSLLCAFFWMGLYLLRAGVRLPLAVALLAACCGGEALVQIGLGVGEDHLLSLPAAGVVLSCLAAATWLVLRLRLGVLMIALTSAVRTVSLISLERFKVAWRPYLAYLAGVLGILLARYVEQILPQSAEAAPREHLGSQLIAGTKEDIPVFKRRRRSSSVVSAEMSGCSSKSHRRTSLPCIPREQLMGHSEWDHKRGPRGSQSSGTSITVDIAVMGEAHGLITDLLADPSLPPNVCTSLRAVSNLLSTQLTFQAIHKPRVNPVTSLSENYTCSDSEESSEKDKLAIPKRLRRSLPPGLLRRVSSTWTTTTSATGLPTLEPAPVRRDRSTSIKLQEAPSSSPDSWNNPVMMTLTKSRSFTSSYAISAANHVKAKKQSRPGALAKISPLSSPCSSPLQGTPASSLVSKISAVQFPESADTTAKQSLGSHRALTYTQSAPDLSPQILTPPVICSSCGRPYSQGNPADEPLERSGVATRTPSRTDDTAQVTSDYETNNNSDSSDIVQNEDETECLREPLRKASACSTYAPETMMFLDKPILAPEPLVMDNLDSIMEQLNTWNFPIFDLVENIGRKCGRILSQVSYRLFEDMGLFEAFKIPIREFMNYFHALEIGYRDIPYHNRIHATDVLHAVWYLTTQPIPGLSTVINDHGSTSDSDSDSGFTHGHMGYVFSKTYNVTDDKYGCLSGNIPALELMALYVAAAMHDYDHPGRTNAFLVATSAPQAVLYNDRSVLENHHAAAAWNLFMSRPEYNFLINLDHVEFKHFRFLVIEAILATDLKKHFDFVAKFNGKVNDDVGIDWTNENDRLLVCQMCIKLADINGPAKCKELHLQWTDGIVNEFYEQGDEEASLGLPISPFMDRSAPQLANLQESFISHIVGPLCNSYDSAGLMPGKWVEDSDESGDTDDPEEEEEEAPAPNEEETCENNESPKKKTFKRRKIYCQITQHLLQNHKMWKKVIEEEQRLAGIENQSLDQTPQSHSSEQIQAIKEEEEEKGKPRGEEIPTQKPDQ

For the molecule `C[C@@H]1OC(=O)NN=C1c1ccc(-c2cc(F)c(F)cc2F)c(C(F)(F)F)c1` [Example 169, (6S)-6-Methyl-5-[2′,4′,5′-trifluoro-2-(trifluoromethyl)[1,1′-biphenyl]-4-yl]-3,6-dihydro-2H-1,3,4-oxadiazin-2-one], the IC50 (as a rule, the concentration needed to halve the response being measured) in test [1] stood at 20 nM; in test [2], 32 nM; in test [3] it was 0.18 µM; in test [4], 0.24 µM.
The corresponding values for `Cc1n[nH]c(C)c1-c1ccc(C2=NNC(=O)OC2)cc1C(F)(F)F` [Example 128, 5-[4-(3,5-Dimethyl-1H-pyrazol-4-yl)-3-(trifluoromethyl)phenyl]-3,6-dihydro-2H-1,3,4-oxadiazin-2-one] are more than 100 nM, more than 100 nM, 0.28 µM and 0.27 µM.
The corresponding values for `O=C1NN=C(c2ccc(-c3cccc(F)c3)c(F)c2)CO1` [Example 117, 5-(2,3′-Difluoro[1,1′-biphenyl]-4-yl)-3,6-dihydro-2H-1,3,4-oxadiazin-2-one] are 5 nM, 9 nM, 0.077 µM and 0.095 µM.
For the molecule `O=C1NN=C(c2ccc(-c3ccc(F)cc3Cl)c(F)c2)CO1` [Example 82, 5-(2′-Chloro-2,4′-difluorobiphenyl-4-yl)-3,6-dihydro-2H-1,3,4-oxadiazin-2-one], the 50% inhibitory concentration (IC50) worked out at 4 nM in test [1], 9 nM in test [2], 0.2 µM in test [3] and 0.32 µM in test [4].
Turning to `CC1(CNc2ccc(C3=NNC(=O)OC3)cc2C(F)(F)F)COC1` [Example 213, 5-[4-{[(3-Methyloxetan-3-yl)methyl]amino}-3-(trifluoromethyl)phenyl]-3,6-dihydro-2H-1,3,4-oxadiazin-2-one], the IC50 in test [1] was found to be 14 nM; in test [2] it was 21 nM; in test [3], 0.068 µM; in test [4] it was 0.071 µM.
As for `O=C1NN=C(c2ccc(NC3CC(O)C3)c(C(F)(F)F)c2)CO1` (mixture of isomers) [Example 206, (cis/trans)-5-[4-{[3-hydroxycyclobutyl]amino}-3-(trifluoromethyl)phenyl]-3,6-dihydro-2H-1,3,4-oxadiazin-2-one], the IC50 in test [1] worked out at 0.5 nM; in test [2], 1 nM; in test [3], 0.015 µM; in test [4], 0.02 µM.
The corresponding values for `Cn1cc(-c2ccc(C3=NNC(=O)OC3)cc2C(F)(F)F)c(C(F)(F)F)n1` [Example 127, 5-{4-[1-Methyl-3-(trifluoromethyl)-1H-pyrazol-4-yl]-3-(trifluoromethyl)phenyl}-3,6-dihydro-2H-1,3,4-oxadiazin-2-one] are more than 100 nM, more than 100 nM, 0.078 µM and 0.031 µM.
Take `O=C1NN=C(c2ccc(-c3cc4ccccc4s3)c(C(F)(F)F)c2)CO1` [Example 148, 5-[4-(1-Benzothiophen-2-yl)-3-(trifluoromethyl)phenyl]-3,6-dihydro-2H-1,3,4-oxadiazin-2-one]: the IC50 in test [1] was 53 nM; in test [2], more than 100 nM; in test [3], 0.19 µM; in test [4], 0.21 µM.
As to `O=C1NN=C(c2ccc(-c3c[nH]nc3C(F)(F)F)c(C(F)(F)F)c2)CO1` [Example 130, 5-{3-(Trifluoromethyl)-4-[3-(trifluoromethyl)-1H-pyrazol-4-yl]phenyl}-3,6-dihydro-2H-1,3,4-oxadiazin-2-one], the IC50 was more than 100 nM in test [1], 25600 nM in test [2], 0.2 µM in test [3] and 0.16 µM in test [4].
The corresponding values for `O=C1NN=C(c2ccc(Br)c(C(F)F)c2)CO1` [Intermediate 77, 5-[4-Bromo-3-(difluoromethyl)phenyl]-3,6-dihydro-2H-1,3,4-oxadiazin-2-one] are 40 nM, 65 nM, 0.15 µM and 0.33 µM.
`CC(C)(C)OC(=O)NCCNc1ccc(C2=NNC(=O)OC2)cc1C(F)(F)F` [Intermediate 67, tert-Butyl {2-[4-(2-oxo-3,6-dihydro-2H-1,3,4-oxadiazin-5-yl)-2-(trifluoromethyl)anilino]ethyl} carbamate]: the half-maximal inhibitory concentration (IC50) in test [1] was more than 100 nM; in test [2], more than 100 nM; in test [3], 0.006 µM; in test [4], 0.007 µM.
As for `O=C1NN=C(c2ccc(C3=CCOC3)c(C(F)F)c2)CO1` [Example 329, 5-[3-(difluoromethyl)-4-(2,5-dihydrofuran-3-yl)phenyl]-3,6-dihydro-2H-1,3,4-oxadiazin-2-one], the IC50 in test [1] was determined as 41 nM; in test [2] it was 64 nM; in test [3], 0.1 µM; in test [4] it was 0.093 µM.
The corresponding values for `Cc1n[nH]c2cc(-c3ccc(C4=NNC(=O)OC4)cc3C(F)(F)F)ccc12` [Example 327, 5-[4-(3-methyl-1H-indazol-6-yl)-3-(trifluoromethyl)phenyl]-3,6-dihydro-2H-1,3,4-oxadiazin-2-one] are more than 100 nM, more than 100 nM, 0.011 µM and 0.016 µM.
The corresponding values for `Cc1ccc(-c2ccc(C3=NNC(=O)O[C@H]3C)cc2C(F)(F)F)c(F)c1` [Example 168, (6S)-5-[2′-Fluoro-4′-methyl-2-(trifluoromethyl)[1,1′-biphenyl]-4-yl]-6-methyl-3,6-dihydro-2H-1,3,4-oxadiazin-2-one] are 14 nM, 25 nM, 0.17 µM and 0.22 µM.
Turning to `Nc1ccccc1-c1ccc(C2=NNC(=O)OC2)cc1F` [Example 102, 5-(2′-Amino-2-fluoro[1,1′-biphenyl]-4-yl)-3,6-dihydro-2H-1,3,4-oxadiazin-2-one], the IC50 in test [1] is 23 nM; in test [2], 40 nM; in test [3], 0.17 µM; in test [4] it was 0.28 µM.
`Cn1cc(-c2ccc(C3=NNC(=O)OC3)cc2OC(F)(F)F)cn1` [Example 68, 5-[4-(1-Methyl-1H-pyrazol-4-yl)-3-(trifluoromethoxy)phenyl]-3,6-dihydro-2H-1,3,4-oxadiazin-2-one]: the IC50 was found to be 4 nM in test [1], 6 nM in test [2], 0.081 µM in test [3] and 0.152 µM in test [4].
Turning to `C[C@@H]1OC(=O)NN=C1c1ccc(N2CCOCC2)c(C(F)(F)F)c1` [Example 120, (6S)-6-Methyl-5-[4-(morpholin-4-yl)-3-(trifluoromethyl)phenyl]-3,6-dihydro-2H-1,3,4-oxadiazin-2-one], the IC50 was 0.3 nM in test [1], 1 nM in test [2], 0.006 µM in test [3] and 0.004 µM in test [4].
As to `O=C1NN=C(c2ccc(-c3ccccc3F)c(C(F)(F)F)c2)CO1` [Example 155, 5-[2′-Fluoro-2-(trifluoromethyl)[1,1′-biphenyl]-4-yl]-3,6-dihydro-2H-1,3,4-oxadiazin-2-one], the IC50 in test [1] amounted to 9 nM; in test [2], 17 nM; in test [3] it was 0.092 µM; in test [4], 0.11 µM.
As for `O=C1NN=C(c2ccc(-c3cccc(O)c3)c(F)c2)CO1` [Example 104, 5-(2-Fluoro-3′-hydroxy[1,1′-biphenyl]-4-yl)-3,6-dihydro-2H-1,3,4-oxadiazin-2-one], the IC50 in test [1] was 37 nM; in test [2], 17 nM; in test [3], 0.035 µM; in test [4] it was 0.058 µM.
Take `O=C1NN=C(c2ccc(-c3ccc(Cl)cn3)c(C(F)(F)F)c2)CO1` [Example 159, 5-[4-(5-Chloropyridin-2-yl)-3-(trifluoromethyl)phenyl]-3,6-dihydro-2H-1,3,4-oxadiazin-2-one]: the IC50 was 11 nM in test [1], 22 nM in test [2], more than 1 µM in test [3] and more than 1 µM in test [4].
For `Cc1nn(C)cc1-c1ccc(C2=NNC(=O)OC2)cc1C(F)(F)F` [Example 52, 5-[4-(1,3-Dimethyl-1H-pyrazol-4-yl)-3-(trifluoromethyl)phenyl]-3,6-dihydro-2H-1,3,4-oxadiazin-2-one], the IC50 in test [1] was 48 nM; in test [2], more than 100 nM; in test [3] it was 0.065 µM; in test [4], 0.03 µM.
On to `C=C(C)c1ccc(C2=NNC(=O)OC2)cc1C(F)(F)F` [Example 147, 5-[4-(Prop-1-en-2-yl)-3-(trifluoromethyl)phenyl]-3,6-dihydro-2H-1,3,4-oxadiazin-2-one], for which the IC50 was found to be 22 nM in test [1], 39 nM in test [2], 0.14 µM in test [3] and 0.31 µM in test [4].
`COCCCNc1ccc(C2=NNC(=O)OC2)cc1C(F)(F)F` [Example 214, 5-{4-[(3-Methoxypropyl)amino]-3-(trifluoromethyl)phenyl}-3,6-dihydro-2H-1,3,4-oxadiazin-2-one]: the IC50 in test [1] turned out to be 1 nM; in test [2] it was 2 nM; in test [3], 0.059 µM; in test [4], 0.073 µM.
As to `Cc1n[nH]cc1-c1ccc(C2=NNC(=O)OC2)cc1C(F)(F)F` [Example 46, 5-[4-(3-Methyl-1H-pyrazol-4-yl)-3-(trifluoromethyl)phenyl]-3,6-dihydro-2H-1,3,4-oxadiazin-2-one], the IC50 in test [1] was found to be 21 nM; in test [2], 34 nM; in test [3], 0.027 µM; in test [4], 0.017 µM.
